# Measured values: patent US4206235A, “Novel 2,5-dihalophenyl-β-substituted sulfone fungicides” (priority 1976, dated 1980)
# Legend:
# Venturia inaequalis [1] = experiment: Control of apple scab in greenhouse test, apple seedlings; format: in vivo; conditions: Barrat & Horsfall Scale, 1 = 0%, 12 = 100% leaf scabbed, 15 days after inoculation
# [2] = tested on: Fusarium oxysporum sp. f.lycopersici; experiment: Fungitoxicity in culture media (agar), growth inhibition; format: cell-based; conditions: 50% inhibition of growth, read-out: ED50 (the source's name)
# Description: (§1) Acetone solutions of the compound were mixed with an aliquot of distilled water and the fine suspension obtained was mixed with cooled but melted agar medium and poured into Petri dishes.
# (§2) The tested fungi were grown on the solidified media. Growth of the fungus was measured and percent inhibition was calculated by comparing with the appropriate acetone-water controls. Media were usually Martin's or potato-dextrose agar media.
# (§3) ED50 = effective dose, sufficient for the 50% inhibition of growth of the fungus, expressed in p.p.m.
# Rhizoctonia solani = experiment: as above; format: cell-based; conditions: 50% inhibition of growth, read-out: ED50 (the source's name)
# Description: as §1, §2, §3
# Rhizoctonia bataticola = experiment: as above; format: cell-based; conditions: Macrophomina phaseolina, 50% inhibition of growth, read-out: ED50 (the source's name)
# Description: as §1, §2, §3
# Rhizopus stolonifer = experiment: as above; format: cell-based; conditions: 50% inhibition of growth, read-out: ED50 (the source's name)
# Description: as §1, §2, §3
# Venturia inaequalis [3] = experiment: Comparative performance of 2 compounds and 2 commercial fungicides, spray treated plants in greenhouse; format: in vivo
# [4] = tested on: mixed spore suspension of Aspergillus flavus, Aspergillus niger, Paecilomyces varioti, Penicillium funiculosum, Trichoderma viride, Alternaria tenuis …; experiment: Weight Loss Test of PVC sheeting
SMILES,Mean disease severity (Venturia inaequalis [1]; 50 p.p.m.),Mean disease severity (Venturia inaequalis [1]; 100 p.p.m.),Mean disease severity (Venturia inaequalis [1]; 500 p.p.m.),IC50 [2],IC50 (Rhizoctonia solani),IC50 (Rhizoctonia bataticola),IC50 (Rhizopus stolonifer),"Disease control (Venturia inaequalis [3]; Test No.1, inoculum 2.5 ×10^5 /ml, 50 p.p.m.)","Disease control (Venturia inaequalis [3]; Test No.1, inoculum 2.5 ×10^5 /ml, 100 p.p.m.)","Disease control (Venturia inaequalis [3]; Test No.1, inoculum 2.5 ×10^5 /ml, 500 p.p.m.)","Disease control (Venturia inaequalis [3]; Test No.2, inoculum 5.0 ×10^5 /ml, 50 p.p.m.)","Disease control (Venturia inaequalis [3]; Test No.2, inoculum 5.0 ×10^5 /ml, 100 p.p.m.)","Disease control (Venturia inaequalis [3]; Test No.2, inoculum 5.0 ×10^5 /ml, 500 p.p.m.)",changes in weight (in words) [4]
"O=S(=O)(CC(Cl)Br)c1cc(Cl)ccc1Cl (stereo not drawn) [Example 6, 2,5-dichlorophenyl-β-chloro-β-bromoethyl sulfone]",4.0,1.0,1.0,> 50 µg/mL,10 µg/mL,20 µg/mL,,,,,,,,
"O=S(=O)(CC(Cl)Cl)c1cc(Br)ccc1Br [Example 7, 2,5-dibromophenyl-β,β'-dichloroethyl sulfone]",5.7,5.3,5.0,50 µg/mL,5 µg/mL,20 µg/mL,50 µg/mL,,,,,,,
"O=S(=O)(CC(Cl)(Cl)Cl)c1cc(Br)ccc1Br [Example 8, 2,5-dibromophenyl-β,β',β""-trichloroethyl sulfone]",6.0,2.0,1.3,,,,,86.4%,97.4%,100%,99.9%,100%,99.9%,
"[Cl][Hg][Cl] [mercuric chloride, reference compound]",,,,,,,,,,,,,,only negligible changes in weight
